Assay results: US20230103444A1 (The Regents of the University of Colorado, a Body Corporate, priority 2020, published 2023)
Where two headings read alike, the source gives them in different places.

Experiments:
cat-CHD1L ATPase = biological target: T1, cat-CHD1L ATPase (Homo sapiens, UniProt Q86WJ1); experiment: CHD1L ATPase assay with recombinant catalytic domain (cat-CHD1L); assay type: biochemical; settings: for inhibition at 20 µM: confirmed HTS hits, HTS at 20 μM, read-out: inhibition against cat-CHD1L ATPase
T1 construct: inferred from Ni-NTA / imidazole purification; made in house; host or cells: E. coli Rosetta 2 (DE3) pLysS; constructs were a gift from Helena Berglund, Karolinska Institute
T1 sequence (Q86WJ1 16-611 limits assumed): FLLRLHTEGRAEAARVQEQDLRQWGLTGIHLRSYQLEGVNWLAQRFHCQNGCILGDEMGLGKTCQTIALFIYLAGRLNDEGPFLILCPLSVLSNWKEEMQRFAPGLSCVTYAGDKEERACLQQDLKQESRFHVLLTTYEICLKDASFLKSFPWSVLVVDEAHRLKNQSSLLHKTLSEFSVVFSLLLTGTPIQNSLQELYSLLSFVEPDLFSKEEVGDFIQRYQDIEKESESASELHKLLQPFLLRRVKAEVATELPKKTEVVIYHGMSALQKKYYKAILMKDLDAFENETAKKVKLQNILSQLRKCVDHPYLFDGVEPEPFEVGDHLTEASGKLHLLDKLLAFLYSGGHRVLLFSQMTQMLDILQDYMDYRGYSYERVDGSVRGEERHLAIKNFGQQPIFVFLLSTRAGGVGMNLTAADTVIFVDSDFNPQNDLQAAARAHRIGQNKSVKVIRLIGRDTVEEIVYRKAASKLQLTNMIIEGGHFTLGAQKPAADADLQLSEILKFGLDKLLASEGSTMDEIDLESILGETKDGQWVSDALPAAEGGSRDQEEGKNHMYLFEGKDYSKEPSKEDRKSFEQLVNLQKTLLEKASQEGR
Method: All reactions were carried out using low volume non-binding surface 384-well plates (Corning Inc., Corning N.Y.). cat-CHD1L or fl-CHD1L (100 nM) and 200 nM c-Myc DNA or mononucelosome (Active Motif, Carlsbad, Calif.) were added to a buffer containing 50 mM Tris pH 7.5, 50 mM NaCl, 1 mM DTT, 5% glycerol, and the reaction was initiated by the addition of 10 μM ATP (New England Biolabs, Ipswich, Mass.) to a total volume of 10 μL and incubated at 37° C. for 1 h. ATPase activity was assayed by adding 500 nM of Phosphate Sensor (Life Technologies, Carlsbad, Calif.), containing labeled phosphate-binding protein, specifically labeled with the fluorophore MDCC, and measuring excitation (430 nm) and emission (450 nm) immediately on an EnVision® plate reader (PerkinElmer, Hopkinton, Mass.). An inorganic phosphate standard curve was used to convert the fluorescence to [Pi], and enzyme kinetics were determined using Prism8 (GraphPad Software, San Diego, Calif.).
Assay composition was the same as described above using cat-CHD1L, except that the reaction mixture volume was modified to accommodate addition of drug or DMSO. Using a Janus® liquid handler (PerkinElmer, Hopkinton, Mass.), a selected amount of compounds dissolved in 100% DMSO were mixed with 50 mM Tris pH 7.5, 50 mM NaCl, 1 mM DTT, 5% glycerol buffer to 200 μM in 10% DMSO. […] The negative control used was 1% DMSO and 10 mM EDTA was used as a positive control. Reactions were initiated with the addition of 10 μM ATP and incubated at 37° C. for 1 h. ATPase activity was measured by fluorescence by adding 500 nM Phosphate Sensor. cat-CHD1L was screened against a 20,000-compound diversity set from Life Chemicals (Woodbridge, Conn.) and a Kinase Inhibitor library from Selleck Chemicals (Houston, Tex.).
CHD1L Enzyme ATPase Assay. […] All reactions were carried out using low volume nonbinding surface 384-well plates (Corning Inc., Corning, N.Y.). […] The reaction was initiated by the addition of 10 μmol/L ATP (New England Biolabs, Ipswich, Mass.) to a total volume of 10 μL and incubated at 37° C. for 1 hour. ATPase activity was measured by adding 500 nmol/L of Phosphate Sensor (ThermoFisher, Waltham, Mass.) measuring excitation (430 nm) and emission (450 nm) immediately on an Envision plate reader (PerkinElmer, Waltham, Mass.). Background signal was determined by using all assay components excluding the enzyme.

TCF-transcription = experiment: TOPflash TCF-transcriptional reporter assay; assay type: cell-based, human; settings: TOPflash reporter in CRC cell lines (SW620, HCT116, DLD1CHD1L-OE), 24 h
Method: TOPflash assay (Millipore, Billerica, Mass.) was used to evaluate TCF transcriptional activity in CRC cells. A total of 20,000 cells per well were plated into 96-well white plates and transfected with TransIT®-LT1 transfection reagent (Mirus, Madison, Wis.). Cells were incubated with transfection mix for 24 h. Next, cells were washed with phosphate-buffered solution (PBS) and a 1:1 ratio of PBS:ONE-Glo™ luciferase reagent Promega (Madison, Wis.) was added and the luminescence was detected within 10 min. A duplicate experiment was conducted to measure cell viability using CellTiter-Glo® Luminescent Cell Viability Assay (Promega, Madison, Wis.), which was used to normalize TOPflash luminescence to obtain the fold change in TCF activity. Experiments were replicated 2× (n=3 for each experiment).
TCF-transcriptional Reporter Assay. […] Afterwards, cells from the white solid bottom plate were carefully washed with PBS and a 1:1 ratio of PBS:One-Glo Luciferase Assay System (Promega) was added, incubated for 10 min, and luminescence was quantified on Envision plate reader (PerkinElmer) for TCF-activity. As a control, cells from the clear plate were lysed with Mammalian Cell Lysis Buffer (Promega) and the total protein from each well was quantified with BCA assay (ThermoFisher).

[1] = system: vimentin promoter activity; experiment: VimPro-GFP reporter 3D high-content imaging in tumor organoids; assay type: cell-based, human; settings: 72 h
Method: (§1) After validating hits 5-7 against CHD1L mediated TCF transcription, the ability of these compounds to reverse EMT and other malignant properties in CRC were evaluated. E-cadherin and vimentin are putative biomarkers for the epithelial and mesenchymal phenotypes, respectively. [McDonald et al., 2015] Loss of E-cadherin and gain of vimentin are also clinical biomarkers of poor prognosis. [Yun et al., 2014; Richardson et al., 2012; Dhanasekaran et al., 2001; Kashiwagi et al., 2010; Toiyama et al., 2013] Accordingly, lentiviral promoter driven reporters for E-cadherin (pCDH1-EcadPro-RFP) and vimentin (pCDH1-VimPro-GFP) were developed, which faithfully report E-cadherin and vimentin protein expression, respectively. [Zhou et al., 2016; Abraham et al., 2019] SW620 cells transduced with either EcadPro-RFP or VimPro-GFP were cultured as tumor organoids for 72 h, reaching a diameter of 600 μm. Tumor organoids were treated with compounds 5-7 for an additional 72 h to determine the effective concentration 50 percent (EC50) for modulating promoter activity. Changes in promoter expression was quantified using a 3D confocal image […] based high-content analysis algorithm (FIG. 2A-2B). [Zhou et al., 2016; Abraham et al., 2019]
(§2) Stable VimPro-GFP or EcadPro-RFP SW620 reporter cells were generated using pCDH imPro-GFP-EF1-puro virus or pCDH-EcadPro-mCherry-EF1-puro virus as previously reported. [Zhou et al., 2016; Abraham et al., 2019] The stable fluorescently labeled reporter cells were used to generate tumor organoids as described herein. Tumor organoids were treated with CHD1L inhibitors at 10 μM for an additional 72 h. Following treatment, tumor organoids were stained with 16 μM of Hoechst 33342 for 1 h (nuclei stain). Images were taken with a 5× air objective. Z-stacks were set at 26.5 μm apart for a total of 15 optical slices. Imaging and high-content analysis were performed using an Opera Phenix™ and Harmony® software (PerkinElmer, Hopkinton, Mass.). Nuclei were identified within each layer and cells were found with either GFP or mCherry channel. The fluorescence intensities of each channel were calculated and thresholds were set based on the background intensities. Percentages of GFP or mCherry RFP positive cells were calculated and normalized to the DMSO treated group.
3D High-Content Imaging and Analysis of EMT Dual-Reporter Activity. Tumor organoids were imaged using the Opera Phenix high-content screening system (PerkinElmer) in confocal mode utilizing a 10× air objective (NA 0.3). […] Organoids were also imaged in Brightfield to segment and perform high-content analysis of dual reporter specific fluorescence intensity. […] Both fluorescent signals were quantified and normalized as previously described. […]

[2] = system: E-cadherin promoter activity; experiment: EcadPro-RFP reporter 3D high-content imaging in tumor organoids; assay type: cell-based; settings: 72 h
Method: as §1
CHD1L has been reported to confer anti-apoptotic activity by inhibiting activation of caspase-dependent apoptosis. [Li et al., 2013; Sun et al., 2016] Additionally, reversal or inhibition of EMT is known to restore apoptotic activity of cancer cells. [Lu et al., 2014] To determine if CHD1L inhibitors reverse EMT prior to induction of cell death, E-cadherin expression by EcadPro-RFP reporter activity was monitored and cytotoxicity was measured using the CellTox™ Green assay. Cells were treated with CHD1L inhibitors for 72 h and imaged every 2 h.
as §2
3D High-Content Imaging and Analysis of EMT Dual-Reporter Activity. Tumor organoids were imaged using the Opera Phenix high-content screening system (PerkinElmer) in confocal mode utilizing a 10× air objective (NA 0.3). The following excitation and emission (Ex/Em) wavelengths were employed: RFP (561/570-630) and GFP (488/500-550). Organoids were also imaged in Brightfield to segment and perform high-content analysis of dual reporter specific fluorescence intensity. RFP fluorescent signal correlates with E-Cadherin promoter activity, while GFP fluorescent signal is correlates with vimentin promoter activity. Both fluorescent signals were quantified and normalized as previously described. (Esquer, et al., 2021)

HCT116 tumor organoids = experiment: Tumor organoid cytotoxicity (CellTiter-Glo 3D); assay type: cell-based, human; settings: Homo sapiens
Method: Cell based cytotoxicity dose response and combination studies. […] Plates were then incubated for 3 days before treatment.
Cell Line Tumor Organoid Culture.
Tumor Organoid Cytotoxicity.

[3] = Mouse liver microsome stability; settings: CD-1, mouse, liver microsomes, pH 7.4, Microsomal stability Mouse t1/2 (min), Table 6
SW620 tumor organoids = experiment: Tumor organoid cytotoxicity (CellTiter-Glo 3D); settings: Homo sapiens
[4] = Human microsomal stability; assay type: in vitro ADME; settings: human microsomes, Table 6, read-out: Microsomal stability Human t1/2
[5] = units given with the values (nM, μM), read-out: activity in dose response studies against cat-CHD1L ATPase (IC50, FIG. 1A)
[6] = SW620 or HCT116 tumor organoids
[7] = HCT-116, 72 h, Table 6, read-out: 3 D Cytotoxicity 72 hr IC50 (μM) HCT116
[8] = HCT-116, single agent, Table 4A, read-out: Tumor Organoid Cytotoxicity IC50 (μM) HCT116
[9] = SW-620, read-out: IC50 of cytotoxicity in SW620 cells
[10] = SW-620, 72 h, read-out: 3 D Cytotoxicity 72 hr IC50 (μM) SW620
[11] = Table 6, read-out: cat-CHD1L inhibition IC50

| SMILES | IC50 (HCT116 tumor organoids; [7]) [µM] | half-life at 10 μM [3] [h] | IC50 (SW620 tumor organoids; [9]) [µM] | half-life [4] [h] | IC50 (SW620 tumor organoids; [10]) [µM] | IC50 (cat-CHD1L ATPase; [11]) [nM] | other results |
| --- | --- | --- | --- | --- | --- | --- | --- |
| CCc1nnc(NS(=O)(=O)c2ccc(NC(=O)c3nc4ccccc4s3)cc2)s1 [Compound 4] |  |  |  |  |  |  | inhibition at 20 µM (cat-CHD1L ATPase): > 50%; IC50 (cat-CHD1L ATPase; [5]): 900 to 5000 nM; inhibition of TCF-transcription, in words (TCF-transcription): modest activity in cells with no dose dependent inhibition |
| Cc1cc(Nc2ccc(NC(=O)Cc3c[nH]c4ccccc34)cc2)nc(N2CCCC2)n1 [Compound 6.5, 2-(1H-indol-3-yl)-N-(4-((6-methyl-2-(pyrrolidin-1-yl)pyrimidin-4-yl)amino)phenyl)acetamide] | 2.2 | 1.17 | < 10 |  |  |  | downregulation of vimentin promoter activity (VimPro-GFP), in words [1, 6]: marked down-regulation of the VimPro-GFP; upregulation of E-cadherin promoter activity (EcadPro-RFP), in words [2, 6]: upregulation of EcadPro-RFP; IC50 (HCT116 tumor organoids; [8]): 2.2 µM |
| Cc1cc(Nc2ccc(NC(=O)Cc3c[nH]c4cc(Cl)ccc34)cc2)nc(N2CCCC2)n1 [Compound 6.18, 2-(6-chloro-1H-indol-3-yl)-N-(4-((6-methyl-2-(pyrrolidin-1-yl)pyrimidin-4-yl)amino)phenyl)acetamide] | 3 | 2.35 | < 10 | 1.47 | 1.5 |  | IC50 (HCT116 tumor organoids; [8]): 2.95 µM; IC50 (SW620 tumor organoids; SW-620, read-out: Tumor Organoid Cytotoxicity IC50 (μM) SW620): 1.4 µM |
| Cc1cc(NCc2ccc(NC(=O)Cc3cc(Br)cs3)cc2)nc(N2CCCC2)n1 [Compound 6.33] | 11.6 | 1.27 | < 10 | 0.637 | 4 | 300 | CHD1L enzyme inhibition, in words (cat-CHD1L ATPase; recombinant cat-CHD1L): good enzyme inhibition |
| Cc1cc(Nc2ccc(NC(=O)Cc3ccco3)cc2)nc(N2CCCC2)n1 [Compound 6.39] | 10.8 | 1.17 |  | 1.48 | 14.2 | > 20000 |  |
| Cc1cc(N2CCCC2)nc(NCc2ccc(NC(=O)Cc3cc(Br)cs3)cc2)n1 [Compound 6.41] | 21.3 | 1.03 |  | 2.86 | 13.5 | 500 |  |
| Cc1ccc(Nc2nc(N3CCN(CCO)CC3)nc3nccnc23)cc1Cl [Compound 7] |  |  |  |  |  |  | inhibition at 20 µM (cat-CHD1L ATPase): > 50%; IC50 (cat-CHD1L ATPase; [5]): 900 to 5000 nM; EC50 ([1]; Homo sapiens, SW-620, read-out: EC50 downregulation of vimentin promoter activity, SW620 tumor organoids): 12.8 ± 1.3 µM; EC50 ([2]; Homo sapiens, SW-620, read-out: EC50 upregulation of E-cadherin promoter activity, SW620 tumor organoids): 28 ± 0.003 µM |
